From US5239084A, “Substituted aminoalkyl biphenyl compounds” (Hoffmann-La Roche Inc., priority 1990, dated 1993)
Values after ≈ are worked out from the molar mass of the structure shown. Values joined by “and” are separate entries in the source; they are usually repeats but may differ in a detail not shown here. Equal values may be shown once. Where a name gives a salt, the structure may show the parent alone.

Experiments:
C. albicans B4 = assay: agar dilution method, C. albicans B4; type: cell-based, Candida albicans; settings: for MIC: Candida albicans, B4, 48 h; for FIC: synergistic when FIC <0.5
C. albicans 3152 = assay: agar dilution method, C. albicans 3152; type: cell-based, Candida albicans; settings: Candida albicans, 48 h, alone, 37° C., 2 days
C. albicans B5 = assay: agar dilution method, C. albicans B5; type: cell-based, Candida albicans; settings: for MIC: Candida albicans, B5, 48 h; for FIC: synergistic when FIC <0.5
C. albicans H29 = assay: agar dilution method, C. albicans H29; type: cell-based, Candida albicans; settings: for MIC: Candida albicans, H29, 48 h, alone, 37° C., 2 days; for FIC: synergistic when FIC <0.5
C. albicans H12 = assay: agar dilution method, C. albicans H12; type: cell-based, Candida albicans; settings: for MIC: Candida albicans, H12, 48 h
C. albicans 3153 = assay: agar dilution method, C. albicans 3153; type: cell-based, Candida albicans; settings: for MIC: Candida albicans, 3153, 48 h, alone, 37° C., 2 days; for FIC: synergistic when FIC <0.5
[1] = biological target: T1, 2,3-epoxysqualene-lanosterol cyclase (Candida albicans, UniProt Q04782); assay: inhibition of 2,3-epoxysqualene-lanosterol cyclase from Candida albicans (cell-free extract, 14C-squalene epoxide); type: biochemical; settings: cell-free extract, pH 6.9, 30° C., 1 hour; read-out: IC50 (converted)
T1 construct: there was obtained a cell-free extract (CFE) as the supernatant; endogenous in cells; host or cells: Candida albicans culture, protoplasts ruptured, cell-free extract (10000 g supernatant)

Candida albicans = assay: agar dilution method, synergism with sterol biosynthesis inhibitors; type: cell-based; settings: in combination with ketoconazole or terbinafine; synergistic when FIC <0.5
[2] = in combination with compound 14
[3] = in combination with compound 20
[4] = in combination with ketoconazole
[5] = in combination with terbinafine

T1 sequence (Q04782 whole entry): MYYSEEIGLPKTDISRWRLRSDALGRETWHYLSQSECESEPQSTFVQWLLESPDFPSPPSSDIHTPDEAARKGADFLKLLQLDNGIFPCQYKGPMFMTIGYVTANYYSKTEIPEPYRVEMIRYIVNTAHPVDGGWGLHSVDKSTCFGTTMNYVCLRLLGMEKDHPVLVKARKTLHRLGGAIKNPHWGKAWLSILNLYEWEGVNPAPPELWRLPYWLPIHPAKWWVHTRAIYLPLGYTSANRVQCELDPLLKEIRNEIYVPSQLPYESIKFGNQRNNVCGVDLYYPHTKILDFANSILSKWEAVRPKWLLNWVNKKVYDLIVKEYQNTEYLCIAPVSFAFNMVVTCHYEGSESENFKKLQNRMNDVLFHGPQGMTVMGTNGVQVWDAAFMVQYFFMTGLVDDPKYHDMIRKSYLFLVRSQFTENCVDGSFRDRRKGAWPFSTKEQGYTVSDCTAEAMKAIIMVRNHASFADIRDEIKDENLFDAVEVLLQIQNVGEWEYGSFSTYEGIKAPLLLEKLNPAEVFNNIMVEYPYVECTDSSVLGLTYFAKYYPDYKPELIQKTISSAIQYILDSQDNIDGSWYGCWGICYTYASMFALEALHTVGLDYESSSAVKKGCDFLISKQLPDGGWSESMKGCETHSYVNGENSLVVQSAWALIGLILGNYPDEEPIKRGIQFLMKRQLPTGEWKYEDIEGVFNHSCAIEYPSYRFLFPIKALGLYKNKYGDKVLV

| SMILES | MIC (C. albicans B4; alone, 37° C., 2 days) [mg/L] | MIC of sterol biosynthesis inhibitor in combination (C. albicans B4; [2]) | MIC of sterol biosynthesis inhibitor in combination (C. albicans B4; [3]) [mg/L] | MIC (C. albicans B5; alone, 37° C., 2 days) [mg/L] | MIC of sterol biosynthesis inhibitor in combination (C. albicans B5; [2]) | MIC of sterol biosynthesis inhibitor in combination (C. albicans B5; [3]) [mg/L] | MIC (C. albicans H29) [mg/L] | MIC of sterol biosynthesis inhibitor in combination (C. albicans H29; [2]) | MIC of sterol biosynthesis inhibitor in combination (C. albicans H29; [3]) [mg/L] | MIC (C. albicans H12; alone, 37° C., 2 days) [mg/L] | MIC of sterol biosynthesis inhibitor in combination (C. albicans H12; [3]) | MIC (C. albicans 3153) [mg/L] | MIC of sterol biosynthesis inhibitor in combination (C. albicans 3153; [3]) [mg/L] | IC50 [1] [µM] | also measured |
| --- | --- | --- | --- | --- | --- | --- | --- | --- | --- | --- | --- | --- | --- | --- | --- |
| CC(=O)N1CCN(c2ccc(OCC3COC(Cn4ccnc4)(c4ccc(Cl)cc4Cl)O3)cc2)CC1 (stereo not shown) [ketoconazole, reference compound] | 2.5 (≈ 4.7 µM) | 0.075 mg/L and 0.15 mg/L | 0.075 | 0.15 (≈ 0.282 µM) | 0.019 mg/L and 0.038 mg/L | 0.019 | 0.15 (≈ 0.282 µM) | 0.019 mg/L and 0.038 mg/L | 0.019 | 5 (≈ 9.41 µM) | 0.15 mg/L and 0.075 mg/L | 2.5 (≈ 4.7 µM) | 0.075 | – | MIC alone (C. albicans B4; alone, 37° C., 2 days): 5 mg/L (≈ 9.41 µM); MIC (C. albicans 3152): 2.5 mg/L (≈ 4.7 µM); MIC alone (C. albicans B5; alone, 37° C., 2 days): 0.3 mg/L (≈ 0.565 µM); MIC alone (C. albicans H12; alone, 37° C., 2 days): 10 mg/L (≈ 18.8 µM) |
| C=CCN(C)Cc1ccc(-c2ccc(C(=O)c3ccc(Br)cc3)cc2)cc1 [Compound 20, 4'-[[(Allylmethylamino)methyl]-4-biphenylylp-bromophenyl ketone hydrochloride] | 2 | – | – | 1 | – | – | 1 | – | – | 2 | – | 1 | – | 0.0309 | MIC of compound in combination (C. albicans B4; [4]): 0.12 mg/L; FIC (C. albicans B4; [4]): 0.093; MIC of compound in combination (C. albicans B4; [5]): 0.50 mg/L; FIC (C. albicans B4; [5]): 0.266; MIC of compound in combination (C. albicans B5; [4]): 0.25 mg/L; FIC (C. albicans B5; [4]): 0.25; MIC of compound in combination (C. albicans B5; [5]): 0.25 mg/L; FIC (C. albicans B5; [5]): 0.5; MIC of compound in combination (C. albicans H29; [4]): 0.25 mg/L; FIC (C. albicans H29; [4]): 0.375; MIC of compound in combination (C. albicans H29; [5]): 0.25 mg/L; FIC (C. albicans H29; [5]): 0.50; synergistic activity (Candida albicans): confirm the synergistic activity; FIC (C. albicans H12; in combination with ketoconazole, synergistic when FIC <0.5, hydrochloride): 0.156 and 0.078; MIC of compound in combination (C. albicans H12; [5]): 0.25 mg/L; FIC (C. albicans H12; in combination with terbinafine, synergistic when FIC <0.5): 0.25; MIC of compound in combination (C. albicans 3153; [4]): 0.12 mg/L; FIC (C. albicans 3153; [4]): 0.156; MIC of compound in combination (C. albicans 3153; [5]): 0.12 mg/L; FIC (C. albicans 3153; [5]): 0.375 |
| CN(C/C=C/C#CC(C)(C)C)Cc1cccc2ccccc12 [terbinafine, reference compound] | 100 (≈ 343 µM) | 3.0 mg/L | 1.5 | – | 3.0 mg/L | 0.7 | – | 3.0 mg/L | 0.75 | – | 0.75 mg/L | – | 1.50 | – | MIC of sterol biosynthesis inhibitor in combination (C. albicans H12; [2]): 1.5 mg/L; MIC of sterol biosynthesis inhibitor in combination (C. albicans 3153; [2]): 3.0 mg/L and 1.5 mg/L |
| C=CCN(C)Cc1ccc(-c2ccc(C(=O)c3ccc([N+](=O)[O-])cc3Cl)cc2)cc1 [Compound 24, 4'-[[(Allylmethylamino)methyl]-4-biphenylyl 2-chloro-4-nitrophenyl ketone hydrochloride] | – | – | – | – | – | – | – | – | – | – | – | – | – | 0.0261 | – |
